Counter-ions that a name gives are not always drawn. Like-named read-outs stand apart in the source and are kept apart here.
System: iCell cardiomyocytes (human iPSC-derived cardiomyocytes)
Assay: Intracellular Ca2+ flux / beating parameters in iCell cardiomyocytes (FLIPR tetra), 90 min or 24 h
Type: cell-based
Settings: 0.00 µM = 100.00; for activity at 0.01 µM / activity at 0.1 µM / activity at 1 µM / activity at 10 µM / activity at 100 µM: Homo sapiens, Cardiomyocyte
How it was run: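 Gelatin-plated iCell cardiomyocytes (5,000/well) were dye-loaded for 2 h at 37 °C, then exposed for 90 min or 24 h to PCBs/metabolites (5× plates at 0.05–500 µM; 0.5% DMSO final) in triplicate. Ca2+ flux was read for 100 s at 8 Hz and 37 °C. Peak height, frequency, spacing CV and decay/rise ratio were vehicle-normalized and fitted with a four-parameter logistic model, with POD set at 1 SD of vehicle.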

[1] = 1.5 h, 0.01 µM, read-out: cm.amp.avg.90min
[2] = 1.5 h, 0.01 µM, read-out: cm.amp.cv.90min
[3] = 1.5 h, 0.01 µM, read-out: cm.bpm.90min
[4] = 1.5 h, 0.01 µM, read-out: cm.decay.rise.90min
[5] = 1.5 h, 0.01 µM, read-out: cm.spacing.cv.90min
[6] = 1.5 h, 0.10 µM, read-out: cm.amp.avg.90min
[7] = 1.5 h, 0.10 µM, read-out: cm.amp.cv.90min
[8] = 1.5 h, 0.10 µM, read-out: cm.bpm.90min
[9] = 1.5 h, 0.10 µM, read-out: cm.decay.rise.90min
[10] = 1.5 h, 0.10 µM, read-out: cm.spacing.cv.90min
[11] = 1.5 h, 1.00 µM, read-out: cm.amp.avg.90min
[12] = 1.5 h, 1.00 µM, read-out: cm.amp.cv.90min
[13] = 1.5 h, 1.00 µM, read-out: cm.bpm.90min
[14] = 1.5 h, 1.00 µM, read-out: cm.decay.rise.90min
[15] = 1.5 h, 1.00 µM, read-out: cm.spacing.cv.90min
[16] = 1.5 h, 10.00 µM, read-out: cm.amp.avg.90min
[17] = 1.5 h, 10.00 µM, read-out: cm.amp.cv.90min
[18] = 1.5 h, 10.00 µM, read-out: cm.bpm.90min
[19] = 1.5 h, 10.00 µM, read-out: cm.decay.rise.90min
[20] = 1.5 h, 10.00 µM, read-out: cm.spacing.cv.90min
[21] = 1.5 h, 100.00 µM, read-out: cm.amp.avg.90min
[22] = 1.5 h, 100.00 µM, read-out: cm.amp.cv.90min
[23] = 1.5 h, 100.00 µM, read-out: cm.bpm.90min
[24] = 1.5 h, 100.00 µM, read-out: cm.decay.rise.90min
[25] = 1.5 h, 100.00 µM, read-out: cm.spacing.cv.90min
[26] = 24 h, 0.01 µM, read-out: cm.amp.avg.24hrs
[27] = 24 h, 0.01 µM, read-out: cm.amp.cv.24hrs
[28] = 24 h, 0.01 µM, read-out: cm.bpm.24hrs
[29] = 24 h, 0.01 µM, read-out: cm.decay.rise.24hrs
[30] = 24 h, 0.01 µM, read-out: cm.spacing.cv.24hrs
[31] = 24 h, 0.10 µM, read-out: cm.amp.avg.24hrs
[32] = 24 h, 0.10 µM, read-out: cm.amp.cv.24hrs
[33] = 24 h, 0.10 µM, read-out: cm.bpm.24hrs
[34] = 24 h, 0.10 µM, read-out: cm.decay.rise.24hrs
[35] = 24 h, 0.10 µM, read-out: cm.spacing.cv.24hrs
[36] = 24 h, 1.00 µM, read-out: cm.amp.avg.24hrs
[37] = 24 h, 1.00 µM, read-out: cm.amp.cv.24hrs
[38] = 24 h, 1.00 µM, read-out: cm.bpm.24hrs
[39] = 24 h, 1.00 µM, read-out: cm.decay.rise.24hrs
[40] = 24 h, 1.00 µM, read-out: cm.spacing.cv.24hrs
[41] = 24 h, 10.00 µM, read-out: cm.amp.avg.24hrs
[42] = 24 h, 10.00 µM, read-out: cm.amp.cv.24hrs
[43] = 24 h, 10.00 µM, read-out: cm.bpm.24hrs
[44] = 24 h, 10.00 µM, read-out: cm.decay.rise.24hrs
[45] = 24 h, 10.00 µM, read-out: cm.spacing.cv.24hrs
[46] = 24 h, 100.00 µM, read-out: cm.amp.avg.24hrs
[47] = 24 h, 100.00 µM, read-out: cm.amp.cv.24hrs
[48] = 24 h, 100.00 µM, read-out: cm.bpm.24hrs
[49] = 24 h, 100.00 µM, read-out: cm.decay.rise.24hrs
[50] = 24 h, 100.00 µM, read-out: cm.spacing.cv.24hrs

O=S(=O)(O)Oc1cc(Cl)ccc1-c1ccccc1 [2-yl PCB 3 sulfate]
activity at 0.01 µM [1]: 107%
activity at 0.01 µM [2]: 102%
activity at 0.01 µM [3]: 99.1%
activity at 0.01 µM [4]: 97.6%
activity at 0.01 µM [5]: 134%
activity at 0.1 µM [6]: 107%
activity at 0.1 µM [7]: 90.3%
activity at 0.1 µM [8]: 97.8%
activity at 0.1 µM [9]: 94.2%
activity at 0.1 µM [10]: 100%
activity at 1 µM [11]: 102%
activity at 1 µM [12]: 102%
activity at 1 µM [13]: 96.5%
activity at 1 µM [14]: 99.3%
activity at 1 µM [15]: 99.6%
activity at 10 µM [16]: 106%
activity at 10 µM [17]: 107%
activity at 10 µM [18]: 96.5%
activity at 10 µM [19]: 97.2%
activity at 10 µM [20]: 90.8%
activity at 100 µM [21]: 114%
activity at 100 µM [22]: 117%
activity at 100 µM [23]: 84%
activity at 100 µM [24]: 100%
activity at 100 µM [25]: 99%
activity at 0.01 µM [26]: 117%
activity at 0.01 µM [27]: 119%
activity at 0.01 µM [28]: 111%
activity at 0.01 µM [29]: 86.8%
activity at 0.01 µM [30]: 109%
activity at 0.1 µM [31]: 63.4%
activity at 0.1 µM [32]: 37.6%
activity at 0.1 µM [33]: 53.5%
activity at 0.1 µM [34]: 43.6%
activity at 0.1 µM [35]: 50.5%
activity at 1 µM [36]: 0%
activity at 1 µM [37]: 0%
activity at 1 µM [38]: 0%
activity at 1 µM [39]: 0%
activity at 1 µM [40]: 0%
activity at 10 µM [41]: 121%
activity at 10 µM [42]: 81.4%
activity at 10 µM [43]: 92.6%
activity at 10 µM [44]: 98.1%
activity at 10 µM [45]: 91.4%
activity at 100 µM [46]: 97.7%
activity at 100 µM [47]: 85.5%
activity at 100 µM [48]: 77.3%
activity at 100 µM [49]: 106%
activity at 100 µM [50]: 86.6%

Clc1ccc(Cl)c(-c2c(Cl)ccc(Cl)c2Cl)c1Cl [(-)-PCB 136, 2,2′,3,3′,6,6′-hexachlorobiphenyl]
cm.amp.avg.90min (0.01 µM): 93.19
cm.amp.cv.90min (0.01 µM): 114.99
cm.bpm.90min (0.01 µM): 99.06
cm.decay.rise.90min (0.01 µM): 100.18
cm.spacing.cv.90min (0.01 µM): 110.22
cm.amp.avg.24hrs (0.01 µM): 96.89
cm.amp.cv.24hrs (0.01 µM): 99.89
cm.bpm.24hrs (0.01 µM): 97.37
cm.decay.rise.24hrs (0.01 µM): 110.34
cm.spacing.cv.24hrs (0.01 µM): 99.92
cm.amp.avg.90min (0.10 µM): 107.52
cm.amp.cv.90min (0.10 µM): 110.59
cm.bpm.90min (0.10 µM): 101.57
cm.decay.rise.90min (0.10 µM): 100.78
cm.spacing.cv.90min (0.10 µM): 107.82
cm.amp.avg.24hrs (0.10 µM): 74.13
cm.amp.cv.24hrs (0.10 µM): 32.34
cm.bpm.24hrs (0.10 µM): 44.87
cm.decay.rise.24hrs (0.10 µM): 55.66
cm.spacing.cv.24hrs (0.10 µM): 50.62
cm.amp.avg.90min (1.00 µM): 95.68
cm.amp.cv.90min (1.00 µM): 133.10
cm.bpm.90min (1.00 µM): 102.82
cm.decay.rise.90min (1.00 µM): 105.32
cm.spacing.cv.90min (1.00 µM): 97.68
cm.amp.avg.24hrs (1.00 µM): 66.49
cm.amp.cv.24hrs (1.00 µM): 35.31
cm.bpm.24hrs (1.00 µM): 50.60
cm.decay.rise.24hrs (1.00 µM): 50.54
cm.spacing.cv.24hrs (1.00 µM): 53.09
cm.amp.avg.90min (10.00 µM): 76.03
cm.amp.cv.90min (10.00 µM): 119.24
cm.bpm.90min (10.00 µM): 115.36
cm.decay.rise.90min (10.00 µM): 88.64
cm.spacing.cv.90min (10.00 µM): 116.95
cm.amp.avg.24hrs (10.00 µM): 43.21
cm.amp.cv.24hrs (10.00 µM): 38.97
cm.bpm.24hrs (10.00 µM): 43.91
cm.decay.rise.24hrs (10.00 µM): 43.15
cm.spacing.cv.24hrs (10.00 µM): 54.11
cm.amp.avg.90min (100.00 µM): 0.00
cm.amp.cv.90min (100.00 µM): 0.00
cm.bpm.90min (100.00 µM): 0.00
cm.decay.rise.90min (100.00 µM): 0.00
cm.spacing.cv.90min (100.00 µM): 0.00
cm.amp.avg.24hrs (100.00 µM): 0.00
cm.amp.cv.24hrs (100.00 µM): 0.00
cm.bpm.24hrs (100.00 µM): 0.00
cm.decay.rise.24hrs (100.00 µM): 0.00
cm.spacing.cv.24hrs (100.00 µM): 0.00

O=C1C=CC(=O)C(c2ccc(Cl)cc2)=C1 [4-Cl-BQ, 2-(4-Chlorophenyl)benzo-2,5-quinone]
activity at 0.01 µM [1]: 91.7%
activity at 0.01 µM [2]: 113%
activity at 0.01 µM [3]: 103%
activity at 0.01 µM [4]: 99.5%
activity at 0.01 µM [5]: 135%
activity at 0.1 µM [6]: 92.1%
activity at 0.1 µM [7]: 88.6%
activity at 0.1 µM [8]: 100%
activity at 0.1 µM [9]: 96.6%
activity at 0.1 µM [10]: 99.9%
activity at 1 µM [11]: 92.1%
activity at 1 µM [12]: 105%
activity at 1 µM [13]: 95.3%
activity at 1 µM [14]: 107%
activity at 1 µM [15]: 104%
activity at 10 µM [16]: 101%
activity at 10 µM [17]: 118%
activity at 10 µM [18]: 124%
activity at 10 µM [19]: 104%
activity at 10 µM [20]: 225%
activity at 100 µM [21]: 0%
activity at 100 µM [22]: 0%
activity at 100 µM [23]: 0%
activity at 100 µM [24]: 0%
activity at 100 µM [25]: 0%
activity at 0.01 µM [26]: 112%
activity at 0.01 µM [27]: 125%
activity at 0.01 µM [28]: 101%
activity at 0.01 µM [29]: 85.3%
activity at 0.01 µM [30]: 104%
activity at 0.1 µM [31]: 97.3%
activity at 0.1 µM [32]: 130%
activity at 0.1 µM [33]: 100%
activity at 0.1 µM [34]: 96.8%
activity at 0.1 µM [35]: 92.5%
activity at 1 µM [36]: 105%
activity at 1 µM [37]: 96.8%
activity at 1 µM [38]: 93.6%
activity at 1 µM [39]: 103%
activity at 1 µM [40]: 98.4%
activity at 10 µM [41]: 45.5%
activity at 10 µM [42]: 56.6%
activity at 10 µM [43]: 64.9%
activity at 10 µM [44]: 72.1%
activity at 10 µM [45]: 63.9%
activity at 100 µM [46]: 0%
activity at 100 µM [47]: 0%
activity at 100 µM [48]: 0%
activity at 100 µM [49]: 0%
activity at 100 µM [50]: 0%
